B1: ligE1: N. aromaticivorans beta-etherase, glutathione S-transferase-like polypeptide, recombinantly expressed in E. coli (protein)
chain: MAANNTITFYDLALSTGATISPFVWATKYALKHKGFDLDVVPGGFTGILERTGGKTERLPAIVDDGEFVLDSWGIVEYLDAKYPDRPVLIPHESVAATLKALDNWFWNAAVGPWMFCFCQDYRDLSLPQDHEYVTHSREKMLGRKLEEVQAGREERLPKISAALEPLRAALAQHQWLGGSSPNYADYRIMGGILFTASVCKTPVLANDDPLRDWIERCLDLYGGLGRHPGLFPLFGLEQREGDPDLFNRAAGQGGIYKRNTGPESTRAETQRITEGMKK
B2: LigF2: N. aromaticivorans beta-etherase, glutathione S-transferase-like polypeptide, recombinantly expressed in E. coli (protein)
chain: MALKYYHAEPLANSLKSMVPLKEKGLAYESIYVDLHKFEQHQPWFTAINPEGQVPVLDHDGTIITHTTVINEYLEDAFPDAQPADAPLRPRDPVGAARMRYWNKFIDEHVMNYVSMHGWHRMVGVIARNIASGDFEKLLESIPLPDQRKKWATARSGFSEADLANATAKIEYALDKVEKQLGETKWLAGDTYTLADINFYSHCGAMVERMFPEMEVARRAPRLCEWRDRVAARPAVAEALKSEDRTAPGLRVWSGEVR
B3: ligE: S. paucimobilis ligE beta-etherase, positive control polypeptide (protein)
chain: MARNNTITLYDLQLESGCTISPYVWRTKYALKHKGFDIDIVPGGFTGILERTGGRSERVPVIVDDGEWVLDSWVIAEYLDEKYPDRPMLFEGPTQKNLMKFLDNWLWSTAVGPWFRCYILDYHDLSLPQDRDYVRWSREQWFLGGQRLEDVQAGREDRLPLVPPTLEPFRRILAETKWLGGDQPNFADYSALAVFLWTASVARTPPLTEDDPLRDWLDRGFDLFDGLGRHPGMNPLFGLKLREGDPEPFVRQTGPAGAGGQALNKGPQTTKMPPRVAEKAD

system: not listed separately; experiment: in vitro biochemical assay for beta-etherase activity on fluorescent substrate MUAV (clarified E. coli cell extracts, 4MU fluorescence); conditions: MUAV substrate
Protocol: This example describes a method for gene expression in E. coli, as well as beta-etherase biochemical assays. Expression of known and putative beta-etherase genes was performed using 5 ml cultures of the recombinant E. coli strains described herein in Luria Broth medium by induction of gene expression using isopropylthiogalactoside (IPTG) to a final concentration of 0.1 mM. Following induction, and cell harvest, the cells were disrupted using either sonication or the BPER (Invitrogen) cell lysis system.
In vitro reactions were performed in a total volume of 200 ul and contained: 25 mM TrisHCl pH 7.5; 0.5 mM dithiothreitol; 1 mM glutathione; 0.05 mM or 0.1 mM MUAV; 10 ul of clarified cell extract used to initiate the reactions. Following incubation for 2.5 hours at room temperature, a 50 ul sample of the reactions was terminated using 150 uL of 300 mM glycine/NaOH buffer pH 9. The formation of 4 methylumbelliferone (4MU) upon hydrolysis of the aryl ether bond was monitored by the increase in fluorescence at λex=360 nm and λem=450 nm using a Spectramax UV/visible/fluorescent spectrophotometer.
The total protein concentrations of the cell lysates were determined using the BCA reagent system for protein quantification (Pierce). […]

Row | Molecule | fold more efficient than S. paucimobilis ligE beta-etherase
1 | B1 | approximately 75 fold

same assay, conditions: MUAV substrate; concentration not given

Row | Molecule | total activity (beta-etherase) [rfu/ug]
2 | B2 | 1206

same assay, conditions: reactions containing 0.1 mM MUAV substrate; E. coli cell extracts expressing the protein

Row | Molecule | total activity (beta-etherase) [rfu/ug]
3 | B1 | 529
4 | B3 | 7

system: Escherichia coli; experiment: not given; conditions: benzaldehyde derivatives; each compound alone; cited from earlier work

Row | Molecule | antibacterial activity against Escherichia coli
5 | O=Cc1c(O)cc(O)cc1O [2,4,6-trihydroxybenzaldehyde] | antibacterial activity
6 | O=Cc1cc(O)ccc1O [2,5-dihydroxybenzaldehyde] | antibacterial activity
7 | O=Cc1ccccc1O [2-hydroxybenzaldehyde] | antibacterial activity
8 | COc1cccc(C=O)c1O [2-hydroxy-3-methoxybenzaldehyde] | antibacterial activity
9 | COc1ccc(O)c(C=O)c1 [2-hydroxy-5-methoxybenzaldehyde] | antibacterial activity
10 | O=Cc1ccc(O)c(O)c1O [2,3,4-trihydroxybenzaldehyde] | antibacterial activity
11 | O=Cc1ccc(O)cc1O [2,4-dihydroxybenzaldehyde] | antibacterial activity
12 | COc1cc(O)cc(OC)c1C=O [4-hydroxy-2,6-dimethoxybenzaldehyde] | antibacterial activity
13 | O=Cc1cccc(O)c1O [2,3-dihydroxybenzaldehyde] | antibacterial activity

same assay, conditions: known; each compound alone; cited from earlier work

Row | Molecule | antimicrobial activity against Escherichia coli
14 | O=Cc1ccc(CO)o1 [5-hydroxymethylfurfural] | antimicrobial activity
15 | O=Cc1ccco1 [furfural] | antimicrobial activity
16 | O=Cc1ccc(O)cc1 [4-hydroxybenzaldehyde] | antimicrobial activity
17 | COc1cc(C=O)cc(OC)c1O [syringaldehyde] | antimicrobial activity
18 | COc1cc(C=O)ccc1O [vanillin] | antimicrobial activity

system: yeast Saccharomyces cerevisiae; experiment: not given; conditions: each compound alone; cited from earlier work

Row | Molecule | antifungal activity against the yeast Saccharomyces cerevisiae
19 | COc1cc(CCC(C)=O)ccc1O [vanillylacetone] | significant antifungal activities
20 | O=C(O)/C=C/c1ccc(O)cc1 [p-coumaric acid] | significant antifungal activities
21 | O=C(O)/C=C/c1cccc(O)c1 [m-coumaric acid] | significant antifungal activities
22 | O=C(O)C=Cc1ccccc1 [cinnamic acid] | significant antifungal activities
23 | COc1cc(C(=O)O)ccc1O [vanillic acid] | significant antifungal activities
24 | O=C(O)/C=C/c1ccccc1O [o-coumaric acid] | significant antifungal activities
25 | COc1ccc(C=O)cc1OC [Veratraldehyde] | significant antifungal activities
